According to US20120214862A1, “MODULATION OF FACTOR 7 EXPRESSION” (ISIS Pharmaceuticals, Inc., priority 2009, published 2012):
In the oligonucleotide strings, read from the 5' end, every base follows the letter of its sugar. An asterisk marks phosphorothioate; unmarked linkages are phosphodiester. Other units and linkages are bracketed, terminal groups are in braces. A string of capitals states the bases alone. e = 2'-O-(2-methoxyethyl) (MOE); [5mC] = 5-methylcytosine; d = 2'-deoxy (DNA)

System: human Factor 7 mRNA
Experiment: Antisense inhibition of human Factor 7 mRNA in HepB3 cells, lipofectin, 50 nM, real-time RT-PCR
Assay type: cell-based
Conditions: for % Inhibition (human Factor 7 mRNA): 50 nM, ~24 h
Experimental: Antisense oligonucleotides targeted to a Factor 7 nucleic acid were tested for their effects on Factor 7 mRNA in vitro. Cultured HepB3 cells at a density of 4,000 cells per well were transfected using lipofectin reagent with 50 nM antisense oligonucleotide. After a treatment period of approximately 24 hours, RNA was isolated from the cells and Factor 7 mRNA levels were measured by real-time RT-PCR, as described herein. Factor 7 mRNA levels were adjusted according to total RNA content as measured by RIBOGREEN®. Results are presented as percent inhibition of Factor 7, relative to untreated control cells.
(§1) Antisense oligonucleotides targeted to a Factor 7 nucleic acid were designed and tested for their effects on Factor 7 mRNA in vitro. Certain antisense oligonucleotides from Table 3 were also retested for their effects on Factor 7 mRNA in vitro. Cultured HepB3 cells at a density of 4,000 cells per well were transfected using lipofectin reagent with 50 nM antisense oligonucleotide. After a treatment period of approximately 24 hours, RNA was isolated from the cells and Factor 7 mRNA levels were measured by real-time RT-PCR, as described herein. Human Factor 7 primer probe set RTS 2927 was used to measure mRNA levels. Factor 7 mRNA levels were adjusted according to total RNA content as measured by RIBOGREEN®. Results are presented as percent inhibition of Factor 7, relative to untreated control.
as §1, with “tested” for “tested for their effects on Factor 7 mRNA in vitro. Certain antisense oligonucleotides from Table 3 were also retested”
These gapmers were designed by creating gapmers shifted slightly upstream and downstream (i.e. “microwalk”) of the original gapmers from Table 7. Gapmers were also created with various motifs, e.g. 5-10-5 MOE, 3-14-3 MOE, and 2-13-5 MOE. These gapmers were tested in vitro. Cultured HepB3 cells at a density of 4,000 cells per well were transfected using lipofectin reagent with 50 nM antisense oligonucleotide. After a treatment period of approximately 24 hours, RNA was isolated from the cells and Factor 7 mRNA levels were measured by real-time RT-PCR. Factor 7 mRNA levels were adjusted according to total RNA content, as measured by RIBOGREEN®. Results are presented as percent inhibition of Factor 7, relative to untreated control cells.

[1] = HepB3 cells, gapmers targeted to nucleobases 11830 to 11869 of SEQ ID NO: 1 (Table 9)
[2] = Example 1, HepB3 cells, lipofectin, relative to untreated control cells
[3] = Example 4, HepB3 cells, lipofectin, relative to untreated control
[4] = HepB3 cells, lipofectin, 50 nM antisense oligonucleotide, approximately 24 hours, primer probe set RTS 2927, relative to untreated control
[5] = HepB3 cells, gapmers targeted to nucleobases 13760 to 13789 of SEQ ID NO: 1 (Table 10)
[6] = HepB3 cells, gapmers targeted to nucleobases 14707 to 14732 of SEQ ID NO: 1 (Table 11)

## 422249 (antisense eT*eG*dG*d[5mC]*dT*dG*dA*dG*dG*dA*dG*dA*d[5mC]*dA*dA*eT*eG*eG*eT*e[5mC]) [compound 422249]
[1]
  % Inhibition of human Factor 7 mRNA levels: 52%

## 407623 (antisense eT*e[5mC]*e[5mC]*eA*eT*dT*d[5mC]*dA*d[5mC]*d[5mC]*dA*dA*d[5mC]*dA*dA*e[5mC]*eA*eG*eG*eA) [compound 407623]
[2]
  % Inhibition (human Factor 7 mRNA): 69%

## 422120 (antisense e[5mC]*eG*e[5mC]*eG*eG*dA*dA*dG*dA*dA*dG*dG*dG*dA*d[5mC]*eG*eG*eA*eA*eG) [compound 422120]
[3]
  % Inhibition (human Factor 7 mRNA): 40%

## 407639 (antisense eT*eT*eT*eG*e[5mC]*dA*dG*d[5mC]*d[5mC]*dA*d[5mC]*dT*d[5mC]*dG*dA*eT*eG*eT*eA*e[5mC]) [compound 407639]
[2]
  % Inhibition (human Factor 7 mRNA): 76%

## 416497 (antisense e[5mC]*eG*eT*eG*e[5mC]*dA*dG*dG*dT*dG*dT*dT*dA*dA*dG*eG*eT*eG*eT*eG) [compound 416497]
[4]
  % Inhibition of human Factor 7 mRNA levels: 0%

## 407961 (antisense eA*eA*eG*eT*eA*dG*dA*dT*dG*dA*dT*dG*d[5mC]*d[5mC]*dT*eG*eA*eG*eT*eG) [compound 407961]
[2]
  % Inhibition (human Factor 7 mRNA): 34%

## 422231 (antisense eT*e[5mC]*dA*dG*dG*dG*d[5mC]*dT*dG*dG*dT*dT*dT*dT*dG*eG*eA*eG*eG*eA) [compound 422231]
[1]
  % Inhibition of human Factor 7 mRNA levels: 22%

## 422103 (antisense eG*e[5mC]*eT*eG*eA*dG*dG*dA*dG*dA*d[5mC]*dA*dA*dT*dG*eG*eT*e[5mC]*eA*eG) [compound 422103]
[1]
  % Inhibition of human Factor 7 mRNA levels: 38%

## 416443 (antisense eG*eA*eG*eG*e[5mC]*dA*dG*dA*dA*dG*d[5mC]*dA*dG*dA*dT*eA*eT*eA*eG*eG) [compound 416443]
[4]
  % Inhibition of human Factor 7 mRNA levels: 17%

## 422104 (antisense eG*eG*e[5mC]*eT*eG*dA*dG*dG*dA*dG*dA*d[5mC]*dA*dA*dT*eG*eG*eT*e[5mC]*eA) [compound 422104]
[1]
  % Inhibition of human Factor 7 mRNA levels: 59%

## 407610 (antisense eA*eG*eG*eG*eA*dG*dG*d[5mC]*dA*dG*dA*dA*dG*d[5mC]*dA*eG*eA*eT*eA*eT) [compound 407610]
[2]
  % Inhibition (human Factor 7 mRNA): 31%

## 422113 (antisense eG*e[5mC]*e[5mC]*eA*e[5mC]*d[5mC]*d[5mC]*dG*d[5mC]*d[5mC]*dG*dG*d[5mC]*dT*d[5mC]*eT*eG*e[5mC]*eT*e[5mC]) [compound 422113]
[5]
  % Inhibition of human Factor 7 mRNA levels: 68%

## 416552 (antisense eT*e[5mC]*eT*eG*e[5mC]*dA*d[5mC]*dA*dG*dG*dG*dT*dA*dG*dA*e[5mC]*e[5mC]*e[5mC]*eT*e[5mC]) [compound 416552]
[4]
  % Inhibition of human Factor 7 mRNA levels: 46%

## 422158 (antisense eA*eT*eG*dG*dT*d[5mC]*dA*dG*dG*dG*d[5mC]*dT*dG*dG*dT*dT*dT*eT*eG*eG) [compound 422158]
[1]
  % Inhibition of human Factor 7 mRNA levels: 49%

## 416517 (antisense eG*eG*eG*eT*eG*d[5mC]*dA*dG*dT*dA*dG*d[5mC]*dA*dG*dA*eT*eG*e[5mC]*eA*eA) [compound 416517]
[4]
  % Inhibition of human Factor 7 mRNA levels: 23%

## 422281 (antisense eG*e[5mC]*dA*dG*d[5mC]*d[5mC]*dT*dG*dA*dG*dG*d[5mC]*d[5mC]*dA*dG*e[5mC]*eA*eG*eA*eT) [compound 422281]
[6]
  % Inhibition of human Factor 7 mRNA levels: 57%

## 416426 (antisense eA*eG*e[5mC]*e[5mC]*e[5mC]*dA*dA*dG*d[5mC]*dA*dG*dA*dA*dG*dG*e[5mC]*eA*eG*eA*eG) [compound 416426]
[4]
  % Inhibition of human Factor 7 mRNA levels: 34%

## 422160 (antisense e[5mC]*eA*eA*dT*dG*dG*dT*d[5mC]*dA*dG*dG*dG*d[5mC]*dT*dG*dG*dT*eT*eT*eT) [compound 422160]
[1]
  % Inhibition of human Factor 7 mRNA levels: 42%

## 422092 (antisense eA*eT*eG*eG*eT*d[5mC]*dA*dG*dG*dG*d[5mC]*dT*dG*dG*dT*eT*eT*eT*eG*eG) [compound 422092]
[1]
  % Inhibition of human Factor 7 mRNA levels: 36%

## 416437 (antisense eA*eG*eG*e[5mC]*eA*d[5mC]*dA*d[5mC]*dT*dG*dG*dT*d[5mC]*d[5mC]*d[5mC]*e[5mC]*eA*eT*e[5mC]*eA) [compound 416437]
[4]
  % Inhibition of human Factor 7 mRNA levels: 52%

## 422114 (antisense e[5mC]*eG*e[5mC]*e[5mC]*eA*d[5mC]*d[5mC]*d[5mC]*dG*d[5mC]*d[5mC]*dG*dG*d[5mC]*dT*e[5mC]*eT*eG*e[5mC]*eT) [compound 422114]
[5]
  % Inhibition of human Factor 7 mRNA levels: 50%

## 407656 (antisense e[5mC]*eA*eG*e[5mC]*eA*dA*dG*dA*dG*dT*dG*d[5mC]*dA*dG*d[5mC]*eT*eT*eG*e[5mC]*e[5mC]) [compound 407656]
[2]
  % Inhibition (human Factor 7 mRNA): 43%

## 422274 (antisense eT*eT*dA*d[5mC]*dT*dG*dA*dG*d[5mC]*dG*d[5mC]*dG*dG*dA*dA*eG*eA*eA*eG*eG) [compound 422274]
[3]
  % Inhibition (human Factor 7 mRNA): 24%

## 422131 (antisense eA*eG*e[5mC]*e[5mC]*eT*dG*dA*dG*dG*d[5mC]*d[5mC]*dA*dG*d[5mC]*dA*eG*eA*eT*e[5mC]*eA) [compound 422131]
[6]
  % Inhibition of human Factor 7 mRNA levels: 68%

## 416514 (antisense eG*eT*eA*eT*eT*dT*dT*d[5mC]*dT*dG*dA*dT*dG*dT*dG*eA*eA*eA*eA*e[5mC]) [compound 416514]
[4]
  % Inhibition of human Factor 7 mRNA levels: 8%

## 407628 (antisense eT*eG*eA*eT*eG*dA*d[5mC]*d[5mC]*dT*dG*d[5mC]*dG*d[5mC]*d[5mC]*dA*e[5mC]*e[5mC]*e[5mC]*eG*e[5mC]) [compound 407628]
[2]
  % Inhibition (human Factor 7 mRNA): 38%

## 422209 (antisense eA*eG*e[5mC]*dA*d[5mC]*dA*d[5mC]*dA*dT*dG*dG*dA*dG*dT*d[5mC]*dA*dG*e[5mC]*eA*eT) [compound 422209]
Example 6 microwalk, nucleobases 15098 to 15122 of SEQ ID NO: 1, HepB3, lipofectin
  % Inhibition (human Factor 7 mRNA): 47%

## 422282 (antisense eA*eG*d[5mC]*dA*dG*d[5mC]*d[5mC]*dT*dG*dA*dG*dG*d[5mC]*d[5mC]*dA*eG*e[5mC]*eA*eG*eA) [compound 422282]
[6]
  % Inhibition of human Factor 7 mRNA levels: 48%

## 422099 (antisense eA*eG*eG*eA*eG*dA*d[5mC]*dA*dA*dT*dG*dG*dT*d[5mC]*dA*eG*eG*eG*e[5mC]*eT) [compound 422099]
[1]
  % Inhibition of human Factor 7 mRNA levels: 48%

## 422266 (antisense e[5mC]*eG*d[5mC]*dG*dG*dA*dA*dG*dA*dA*dG*dG*dG*dA*d[5mC]*eG*eG*eA*eA*eG) [compound 422266]
[3]
  % Inhibition (human Factor 7 mRNA): 13%

## 416545 (antisense eA*eG*eA*eA*eA*d[5mC]*dA*dT*d[5mC]*d[5mC]*d[5mC]*dA*dT*dT*dT*eT*e[5mC]*e[5mC]*e[5mC]*eA) [compound 416545]
[4]
  % Inhibition of human Factor 7 mRNA levels: 8%

## 416444 (antisense eA*e[5mC]*eA*eG*eT*dT*d[5mC]*d[5mC]*dG*dG*d[5mC]*d[5mC]*d[5mC]*dT*d[5mC]*eG*eA*eA*eG*eG) [compound 416444]
[4]
  % Inhibition of human Factor 7 mRNA levels: 24%

## 422090 (antisense eG*eG*eT*e[5mC]*eA*dG*dG*dG*d[5mC]*dT*dG*dG*dT*dT*dT*eT*eG*eG*eA*eG) [compound 422090]
[1]
  % Inhibition of human Factor 7 mRNA levels: 42%

## 422219 (antisense e[5mC]*e[5mC]*eG*dA*dG*dT*dT*d[5mC]*dT*dG*d[5mC]*dA*dG*dG*dA*dG*d[5mC]*eG*eG*e[5mC]) [compound 422219]
HepB3 cells, gapmers (5-10-5, 3-14-3, 2-13-5 MOE) targeted to nucleobases 4868 to 4899 of SEQ ID NO: 1
  % Inhibition of human Factor 7 mRNA levels: 65%

## 407913 (antisense eG*eA*eT*eG*e[5mC]*d[5mC]*d[5mC]*dG*dT*d[5mC]*dA*dG*dG*dT*dA*e[5mC]*e[5mC]*eA*e[5mC]*eG) [compound 407913]
[2]
  % Inhibition (human Factor 7 mRNA): 74%

## 416558 (antisense eT*eG*eA*e[5mC]*eA*dG*d[5mC]*dA*d[5mC]*dG*dA*dA*dG*d[5mC]*d[5mC]*e[5mC]*eA*eG*eA*eG) [compound 416558]
[4]
  % Inhibition of human Factor 7 mRNA levels: 19%
